Measurements published in patent US20090005248A1, “SYNERGISTIC HERBICIDAL COMPOSITION CONTAINING A SUBSTITUTED PHENOXY ALKANOIC ACID DERIVATIVE AND A GLYPHOSATE DERIVATIVE” (Dow AgroSciences LLC, priority 2007, published 2009).

What was measured:
Assay type in all cases: in vivo
[1] = tested on: ivyleaf morning glory (Ipomoea hederacea; IPOHE); test: Greenhouse foliar application, visual herbicidal activity on IPOHE; details: 14 to 21 days after application
Excerpt: (§1) 2,4-D (dimethylamine salt), dichlorprop (potassium salt) and Glyphomax XRT® herbicide (isopropylamine salt) alone and in combinations were applied to the foliage of rapidly growing plant material utilizing a track sprayer calibrated to deliver an application volume of 187 L/ha. Treated plant material was maintained in a greenhouse that provided a 16-hr photoperiod, supplemented with metal halide-generated light, set to provide a minimum of 500 μmolm^−2s^−1. The greenhouse was maintained at a temperature of 26 to 28° C. and a relative humidity of 50 to 70%. Assessment of herbicidal activity was performed visually 14 to 21 days after application.
(§2) The expected growth reduction of plant species from the combination of herbicides was calculated utilizing the Colby equation:
(§3) Expected growth reduction (E)=X+Y−(X*Y/100)
(§4) where X is % of growth reduction of a weed at a given concentration of a herbicide (or herbicide formulation) and Y is the % growth reduction of the same species and size weed at a given concentration of an independent herbicide (or herbicide formulation).

[2] = tested on: Canada thistle (Cirsium arvense; CIRAR); test: Greenhouse foliar application, visual herbicidal activity on CIRAR; details: 14 to 21 days after application
Excerpt: as §1, §2, §3, §4

[3] = tested on: prickly sida (Sida spinosa; SIDSP); test: Greenhouse foliar application, visual herbicidal activity on SIDSP; details: 2,4-D 140 g ae/ha alone, 14 to 21 days after application
Excerpt: as §1, §2, §3, §4

[4] = tested on: velvetleaf (Abutilon theophrasti; ABUTH); test: Greenhouse foliar application, visual herbicidal activity on ABUTH; details: 14 to 21 days after application
Excerpt: as §1, §2, §3, §4

[5] = tested on: common ragweed (Ambrosia artemesifolia; AMBEL); test: Greenhouse foliar application, visual herbicidal activity on AMBEL; details: 14 to 21 days after application
Excerpt: as §1, §2, §3, §4

[6] = tested on: spiderwort (Commelina benghalensis; COMBE); test: Greenhouse foliar application, visual herbicidal activity on COMBE; details: 14 to 21 days after application
Excerpt: as §1, §2, §3, §4

[7] = tested on: hemp sesbania (Sesbania exaltata; SEBEX); test: Greenhouse foliar application, visual herbicidal activity on SEBEX; details: 14 to 21 days after application
Excerpt: as §1, §2, §3, §4

[8] = tested on: field bindweed (Polygonum convolvulus; POLCO); test: Greenhouse foliar application, visual herbicidal activity on POLCO; details: 14 to 21 days after application
Excerpt: as §1, §2, §3, §4

[9] = tested on: common waterhemp (Amaranthus rudis; AMATA); test: Greenhouse foliar application, visual herbicidal activity on AMATA; details: 14 to 21 days after application
Excerpt: as §1, §2, §3, §4

[10] = tested on: glyphosate-susceptible Conyza canadensis (ERICA); test: Greenhouse foliar application, visual herbicidal activity on glyphosate-susceptible ERICA; details: 14 to 21 days after application
Excerpt: as §1, §2, §3, §4

[11] = tested on: glyphosate-resistant Conyza canadensis (ERICA); test: Greenhouse foliar application, visual herbicidal activity on glyphosate-resistant ERICA; details: 14 to 21 days after application
Excerpt: as §1, §2, §3, §4

[12] = tested on: glyphosate-resistant horseweed (ERICA, Conyza canadensis); test: Field study at Church Hill, Md., percent visual control of glyphosate-resistant horseweed; details: 29 days after application
Description: as §2, §3, §4
A field study was conducted at Church Hill, Md. where glyphosate-resistant horseweed (ERICA, Conyza canadensis) had been observed for 2-3 years prior to the start of this study. The study design was a split-plot with 4 replications per treatment and each plot was 3.048 M wide and 9.144 M long. The environmental conditions at the time of application were as follows: air temperature, 22° C.; wind speed, 6 kph; wind direction, south; releative humidity, 85%; cloud cover, 80%; target foliage moisture, none; soil moisture, moist; soil temperature at 5 cm depth, 21° C. The treatments were applied using a backpack CO2 sprayer, with six XR8003 flat fan nozzles spaced 46 cm apart (boom length: 2.76 M) and held 40 cm above the plant canopy. The sprayer was operated at 103 kPa and 4.8 kilometers per hour to deliver 187 L of water per hectare. At the time of applications the glyphosate-resistant horseweed were 30-38 cm tall and there were between 10 and 20 plants per square meter (m^2). The percent visual control of glyphosate-resistant horseweed was rated over the entire plot (27.87 m^2) 29 days after application. In each plot between 278 and 557 glyphosate-resistant horseweed plants were rated, collectively, for percent visual control.

Question: What does the source list for `O=C(O)COc1ccc(Cl)cc1Cl` [2,4-D, 2,4-dichlorophenoxy acetic acid]?
Answer: Actual Injury (% growth reduction) ([1]; 2,4-D 70 g ae/ha alone): 17 % growth reduction; Actual Injury (% growth reduction) ([2]; 2,4-D 280 g ae/ha alone): 38 % growth reduction; Actual Injury (% growth reduction) [3]: 17 % growth reduction; Actual Injury (% growth reduction) ([4]; 2,4-D 280 g ae/ha alone): 28 % growth reduction; Actual Injury (% growth reduction) ([5]; 2,4-D 140 g ae/ha alone): 61 % growth reduction; Actual Injury (% growth reduction) ([6]; 2,4-D 140 g ae/ha alone): 48 % growth reduction; Actual Injury (% growth reduction) ([7]; 2,4-D 280 g ae/ha alone): 37 % growth reduction; Actual Injury (% growth reduction) ([8]; 2,4-D 280 g ae/ha alone): 32 % growth reduction; Actual Injury (% growth reduction) ([9]; 2,4-D 280 g ae/ha alone): 53 % growth reduction; Actual Injury (% growth reduction) ([10]; 2,4-D 35 g ae/ha alone): 47 % growth reduction; Actual Injury (% growth reduction) ([11]; 2,4-D 70 g ae/ha alone): 38 % growth reduction; Actual Injury (% growth reduction) ([12]; 2,4-D 280 g ae/ha alone): 12.5 % growth reduction; Actual Injury (% growth reduction) ([12]; 2,4-D 560 g ae/ha alone): 23.0 % growth reduction; Actual Injury (% growth reduction) ([12]; 2,4-D 1120 g ae/ha alone): 36.3 % growth reduction

Question: Which results are given for `CC(Oc1ccc(Cl)cc1Cl)C(=O)O` (stereo not drawn) [Dichlorprop, 2,4-dichlorophenoxy propionic acid]?
Answer: Actual Injury (% growth reduction) ([1]; Dichlorprop 70 g ae/ha alone): 68 % growth reduction; Actual Injury (% growth reduction) ([2]; Dichlorprop 70 g ae/ha alone): 48 % growth reduction; Actual Injury (% growth reduction) ([4]; Dichlorprop 70 g ae/ha alone): 33 % growth reduction; Actual Injury (% growth reduction) ([5]; Dichlorprop 280 g ae/ha alone): 58 % growth reduction; Actual Injury (% growth reduction) ([6]; Dichlorprop 70 g ae/ha alone): 80 % growth reduction; Actual Injury (% growth reduction) ([7]; Dichlorprop 140 g ae/ha alone): 38 % growth reduction; Actual Injury (% growth reduction) ([8]; Dichlorprop 140 g ae/ha alone): 38 % growth reduction; Actual Injury (% growth reduction) ([9]; Dichlorprop 280 g ae/ha alone): 48 % growth reduction; Actual Injury (% growth reduction) ([10]; Dichlorprop 210 g ae/ha alone): 43 % growth reduction; Actual Injury (% growth reduction) ([11]; Dichlorprop 210 g ae/ha alone): 43 % growth reduction
